Source: US20160122820A1, “Screening Method for Identifying Active Agents” (Avon Products, Inc., priority 2014, published 2016)

Tested on: human skin
Details: for CYP7B1 gene expression (fold change): in vivo; for BIRC3 gene expression (fold change) / C1orf162 gene expression (fold change) / CCR2 gene expression (fold change) / CD1B gene expression (fold change) / CD2 gene expression (fold change) / CD53 gene expression (fold change) / CD86 gene expression (fold change) / CD226 gene expression (fold change) / CHRM4 gene expression (fold change) / CLEC7A gene expression (fold change) / COL3A1 gene expression (fold change) / COL5A2 gene expression (fold change) / COL6A6 gene expression (fold change) / COL14A1 gene expression (fold change) / CTSS gene expression (fold change) / CYBB gene expression (fold change) / CYTIP gene expression (fold change) / DIO2 gene expression (fold change) / EVI2B gene expression (fold change) / FAP gene expression (fold change) / FCGR2A gene expression (fold change) / FPR3 gene expression (fold change) / FYB gene expression (fold change) / GDPD2 gene expression (fold change) / GLIPR1 gene expression (fold change) / GMFG gene expression (fold change) / GPR174 gene expression (fold change) / GZMK gene expression (fold change) / HIST1H3A gene expression (fold change) / HLA-DPA1 gene expression (fold change) / HLA-DQA1 gene expression (fold change) / HLA-DRA gene expression (fold change) / IFI44L gene expression (fold change) / IFI44 gene expression (fold change) / IL33 gene expression (fold change) / IRF8 gene expression (fold change) / KIAA0226L gene expression (fold change) / KLRB1 gene expression (fold change) / LYZ gene expression (fold change) / MIRLET7C gene expression (fold change) / MNDA gene expression (fold change) / OCA2 gene expression (fold change) / PARP14 gene expression (fold change) / PCSK2 gene expression (fold change) / PLAC8 gene expression (fold change) / PLEK gene expression (fold change) / PTPRC gene expression (fold change) / RGS1 gene expression (fold change) / RNASE6 gene expression (fold change) / SAMD9 gene expression (fold change) / SELL gene expression (fold change) / SPP1 gene expression (fold change) / SRGN gene expression (fold change) / ST8SIA4 gene expression (fold change) / TPPP gene expression (fold change) / TRPM1 gene expression (fold change) / UGT2A1 gene expression (fold change) / VCAM1 gene expression (fold change): photodamaged forearm skin, 0.02% partially occlusive patch 30 days, 30-day biopsy relative to baseline, negative = downregulated

Compound: CC1=C(/C=C/C(C)=C/C=C/C(C)=C/C(=O)O)C(C)(C)CCC1 [RA, retinoic acid]
- CYP7B1 gene expression (fold change): 1.320 fold change
- BIRC3 gene expression (fold change): 1.555 fold change
- C1orf162 gene expression (fold change): 1.356 fold change
- CCR2 gene expression (fold change): 1.658 fold change
- CD1B gene expression (fold change): 1.510 fold change
- CD2 gene expression (fold change): 1.339 fold change
- CD53 gene expression (fold change): 1.586 fold change
- CD86 gene expression (fold change): 1.468 fold change
- CD226 gene expression (fold change): 1.423 fold change
- CHRM4 gene expression (fold change): −1.326 fold change
- CLEC7A gene expression (fold change): 1.964 fold change
- COL3A1 gene expression (fold change): 1.443 fold change
- COL5A2 gene expression (fold change): 1.369 fold change
- COL6A6 gene expression (fold change): 2.091 fold change
- COL14A1 gene expression (fold change): 1.311 fold change
- CTSS gene expression (fold change): 1.302 fold change
- CYBB gene expression (fold change): 1.637 fold change
- CYTIP gene expression (fold change): 1.336 fold change
- DIO2 gene expression (fold change): −1.548 fold change
- EVI2B gene expression (fold change): 1.405 fold change
- FAP gene expression (fold change): 1.370 fold change
- FCGR2A gene expression (fold change): 1.366 fold change
- FPR3 gene expression (fold change): 1.439 fold change
- FYB gene expression (fold change): 1.483 fold change
- GDPD2 gene expression (fold change): −2.585 fold change
- GLIPR1 gene expression (fold change): 1.422 fold change
- GMFG gene expression (fold change): 1.358 fold change
- GPR174 gene expression (fold change): 1.411 fold change
- GZMK gene expression (fold change): 1.571 fold change
- HIST1H3A gene expression (fold change): 1.375 fold change
- HLA-DPA1 gene expression (fold change): 1.466 fold change
- HLA-DQA1 gene expression (fold change): 1.594 fold change
- HLA-DRA gene expression (fold change): 1.403 fold change
- IFI44L gene expression (fold change): 1.472 fold change
- IFI44 gene expression (fold change): 1.337 fold change
- IL33 gene expression (fold change): 1.587 fold change
- IRF8 gene expression (fold change): 1.725 fold change
- KIAA0226L gene expression (fold change): 1.307 fold change
- KLRB1 gene expression (fold change): 1.363 fold change
- LYZ gene expression (fold change): 2.271 fold change
- MIRLET7C gene expression (fold change): −1.319 fold change
- MNDA gene expression (fold change): 1.406 fold change
- OCA2 gene expression (fold change): −1.432 fold change
- PARP14 gene expression (fold change): 1.364 fold change
- PCSK2 gene expression (fold change): −1.825 fold change
- PLAC8 gene expression (fold change): 1.844 fold change
- PLEK gene expression (fold change): 1.667 fold change
- PTPRC gene expression (fold change): 1.606 fold change
- RGS1 gene expression (fold change): 1.503 fold change
- RNASE6 gene expression (fold change): 1.540 fold change
- SAMD9 gene expression (fold change): 5.339 fold change
- SELL gene expression (fold change): 1.691 fold change
- SPP1 gene expression (fold change): 1.416 fold change
- SRGN gene expression (fold change): 1.569 fold change
- ST8SIA4 gene expression (fold change): 1.389 fold change
- TPPP gene expression (fold change): −1.402 fold change
- TRPM1 gene expression (fold change): −1.306 fold change
- UGT2A1 gene expression (fold change): −1.369 fold change
- VCAM1 gene expression (fold change): 1.730 fold change

Compound: CC1=C(/C=C/C(C)=C/C=C/C(C)=C/CO)C(C)(C)CCC1 [Retinol, retinol]
- CYP7B1 gene expression (fold change): 1.309 fold change
- BIRC3 gene expression (fold change): 1.815 fold change
- C1orf162 gene expression (fold change): 1.301 fold change
- CCR2 gene expression (fold change): 1.416 fold change
- CD1B gene expression (fold change): 1.844 fold change
- CD2 gene expression (fold change): 1.311 fold change
- CD53 gene expression (fold change): 1.483 fold change
- CD86 gene expression (fold change): 1.348 fold change
- CD226 gene expression (fold change): 1.396 fold change
- CHRM4 gene expression (fold change): −1.401 fold change
- CLEC7A gene expression (fold change): 1.502 fold change
- COL3A1 gene expression (fold change): 1.455 fold change
- COL5A2 gene expression (fold change): 1.380 fold change
- COL6A6 gene expression (fold change): 2.245 fold change
- COL14A1 gene expression (fold change): 1.408 fold change
- CTSS gene expression (fold change): 1.514 fold change
- CYBB gene expression (fold change): 1.413 fold change
- CYTIP gene expression (fold change): 1.481 fold change
- DIO2 gene expression (fold change): −1.384 fold change
- EVI2B gene expression (fold change): 1.323 fold change
- FAP gene expression (fold change): 1.518 fold change
- FCGR2A gene expression (fold change): 1.346 fold change
- FPR3 gene expression (fold change): 1.321 fold change
- FYB gene expression (fold change): 1.404 fold change
- GDPD2 gene expression (fold change): −1.363 fold change
- GLIPR1 gene expression (fold change): 1.450 fold change
- GMFG gene expression (fold change): 1.300 fold change
- GPR174 gene expression (fold change): 1.339 fold change
- GZMK gene expression (fold change): 1.402 fold change
- HIST1H3A gene expression (fold change): −1.363 fold change
- HLA-DPA1 gene expression (fold change): 1.364 fold change
- HLA-DQA1 gene expression (fold change): 1.378 fold change
- HLA-DRA gene expression (fold change): 1.439 fold change
- IFI44L gene expression (fold change): 1.320 fold change
- IFI44 gene expression (fold change): 1.429 fold change
- IL33 gene expression (fold change): 1.360 fold change
- IRF8 gene expression (fold change): 1.392 fold change
- KIAA0226L gene expression (fold change): 1.371 fold change
- KLRB1 gene expression (fold change): 1.377 fold change
- LYZ gene expression (fold change): 1.603 fold change
- MIRLET7C gene expression (fold change): 1.366 fold change
- MNDA gene expression (fold change): 1.805 fold change
- OCA2 gene expression (fold change): −1.334 fold change
- PARP14 gene expression (fold change): 1.356 fold change
- PCSK2 gene expression (fold change): −1.566 fold change
- PLAC8 gene expression (fold change): 1.434 fold change
- PLEK gene expression (fold change): 1.449 fold change
- PTPRC gene expression (fold change): 1.446 fold change
- RGS1 gene expression (fold change): 1.379 fold change
- RNASE6 gene expression (fold change): 1.452 fold change
- SAMD9 gene expression (fold change): 1.382 fold change
- SELL gene expression (fold change): 1.304 fold change
- SPP1 gene expression (fold change): 1.604 fold change
- SRGN gene expression (fold change): 1.353 fold change
- ST8SIA4 gene expression (fold change): 1.366 fold change
- TPPP gene expression (fold change): −1.328 fold change
- TRPM1 gene expression (fold change): −1.431 fold change
- UGT2A1 gene expression (fold change): −1.696 fold change
- VCAM1 gene expression (fold change): 1.357 fold change
